From PubChem BioAssay AID557 (SRMLSC, 2006)
Calls of active or inactive are those of the source.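 How the source made its calls: active means clearly stronger inhibition of the target kinase than of the helper enzymes tested alone in a counter assay; inactive means the rest.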

Target: mevalonate kinase (Streptococcus pneumoniae D39)
Assay: S. pneumoniae MK inhibitor potency, dose response, biochemical, PK/LDH-coupled NADH absorbance, hexokinase coupling counter-screen (AID 557)
Settings: purified MK, PK/LDH coupled NADH absorbance 340 nm
For `Cc1occc1C(=O)Nc1nnc(C(F)(F)F)s1`, the outcome was “inactive”.
In the case of `CN1CCN(c2nc3c(c(=O)n(C)c(=O)n3C)n2Cc2cccc3ccccc23)CC1`, the outcome is reported as “inactive”.
For `COc1cc(NC(=O)c2cc(CC(C)C)on2)c(OC)cc1Cl`, the outcome was “inactive”.
In the case of `O=c1c2ccccc2nnn1CSc1nnc(-c2cccs2)n1Cc1ccccc1`, the outcome is reported as “inactive”.
For `COc1ccc(CN2C(=O)c3cccnc3C2Nc2cc(Cl)c(OC)cc2OC)cc1` (centres undefined), the IC50 was 15.2 µM.
In the case of `Cc1ccc(CNC(=O)C2CCN(S(=O)(=O)c3c(C)noc3C)CC2)cc1`, the outcome is reported as “inactive”.
Compound `Cc1ccc(NC2c3ncccc3C(=O)N2c2ccccc2C)cc1C` (centres undefined) has an IC50 of 4.5 µM.
With `COc1ccc(CN2C(=O)c3cccnc3C2Nc2cc(Cl)ccc2OC)cc1` (centres undefined) the IC50 was 5.71 µM.
Work on `O=C1C(=O)N(CCN2CCOCC2)C(c2ccncc2)/C1=C(/O)c1ccc2c(c1)OCO2` (centres undefined) yielded an IC50 of 116 µM.
For `CCn1nnc(NC(=O)c2cccc(-c3cc4ccccc4oc3=O)c2)n1`, the outcome was “inactive”.
With `COc1ccc2[nH]cc(C3N4CC5(C)CN3CC(C)(C4)C5=O)c2c1` (centres undefined) the outcome was “inactive”.
In the case of `CCC(=O)Nc1ccc(NC(=O)c2ccccn2)cn1`, the outcome is reported as “inactive”.
In the case of `Cc1ccc2[nH]c(=O)c(CN(CCN3CCOCC3)C(=O)Nc3ccccc3F)cc2c1`, the outcome is reported as “inactive”.
With `CC(C)C1Oc2ccccc2N(CC(=O)NCCCN2C(C)CCCC2C)C1=O` (centres undefined) the outcome was “inactive”.
With `CCn1c(CC(C)C)n[nH]c1=S` the outcome was “inactive”.
For `Nc1nnc(CCS(=O)(=O)c2cc(Cl)ccc2Cl)s1`, the outcome was “inactive”.
For `CC1=NN(c2ccccc2)C(=O)C1`, the outcome was “inactive”.
For `COc1ccc(N(CC(=O)Nc2cc(OC)ccc2OC)S(C)(=O)=O)cc1`, the outcome was “inactive”.
With `COc1cc2c(cc1OC)CN(Cc1ccc(OC)c(C)c1OC)CC2` the outcome was “inactive”.
With `Cc1cccc(NC(=O)c2cnc3sccn3c2=O)n1` the outcome was “inactive”.
In the case of `CCCCn1c(Cl)nc2c1c(=O)n(C)c(=O)n2C`, the outcome is reported as “inactive”.
In the case of `CCOC(=O)c1[nH]c2ccccc2c1NC(=O)c1ccc(Br)o1`, the outcome is reported as “inactive”.
For `Cn1c(SCCOc2cccc(Cl)c2)nnc1-c1ccncc1`, the outcome was “inactive”.
For `CCOc1ccc(-n2c(-c3ccco3)n[nH]c2=S)cc1`, the outcome was “inactive”.
With `CCN(CC)S(=O)(=O)c1ccc(C(=O)OCC(=O)N2CCN(C(=O)c3ccco3)CC2)cc1` the outcome was “inactive”.
In the case of `O=c1c(-c2ccccc2)c(O)c2cccc3c2n1CCC3`, the outcome is reported as “inactive”.
In the case of `COc1cccc(N2CCN(C3CC(=O)N(c4ccc(C)c(Cl)c4)C3=O)CC2)c1` (centres undefined), the outcome is reported as “inactive”.
With `COc1ccc(-n2c(=O)c3c4c(sc3n(CC(=O)NCc3ccco3)c2=O)CCC4)c(OC)c1` the outcome was “inactive”.
Compound `CCN(CC)S(=O)(=O)c1ccc(NC2c3ncccc3C(=O)N2Cc2ccccc2)cc1` (centres undefined) has an IC50 of 21.9 µM.
For `CC1CCN(S(=O)(=O)c2ccc(NC(=O)CN3CCN(C)CC3)cc2)CC1`, the outcome was “inactive”.
For `O=C(NCc1cn2ccccc2n1)c1ccccc1`, the outcome was “inactive”.
With `O=C(COC(=O)Cc1ccc(S(=O)(=O)N2CCOCC2)s1)NCc1ccccc1` the outcome was “inactive”.
For `O=C(NCc1nnc(SCC(=O)N2CCN(c3ccccc3)CC2)o1)c1ccco1`, the outcome was “inactive”.
In the case of `CCCCOC(=O)CSC1=C(C#N)C(c2ccccc2OC)C(C#N)C(=O)N1` (centres undefined), the outcome is reported as “inactive”.
In the case of `N#C/C(=C(/O)COC(=O)CCc1ccc(S(=O)(=O)N2CCOCC2)cc1)c1nc2ccccc2[nH]1`, the outcome is reported as “inactive”.
In the case of `N#Cc1ccc(-c2cccnc2)nc1SCC(=O)Nc1sc2c(c1C#N)CCC2`, the outcome is reported as “inactive”.
For `Cc1cc(N2CCN(C(=O)c3ccco3)CC2)n2ncnc2n1`, the outcome was “inactive”.
With `CC(C)NC(=O)CSc1nnc(-c2ccc(S(=O)(=O)N3CCCC3)cc2)n1CC1CCCO1` (centres undefined) the outcome was “inactive”.
In the case of `Cn1cccc1Cc1nnc(SCC(=O)NCc2ccc(F)cc2)n1-c1ccc(F)cc1`, the outcome is reported as “inactive”.
In the case of `COc1ccc(N(CC(=O)NCc2cccs2)S(=O)(=O)c2cccnc2)cc1`, the outcome is reported as “inactive”.
In the case of `O=C(c1ccc(F)cc1)N1CCC(N2CCCCCC2)CC1`, the outcome is reported as “inactive”.
With `N/C(CCN1CCOCC1)=N/O` the outcome was “inactive”.
For `c1ccn2c(SCc3ccc4c(c3)OCO4)nnc2c1`, the outcome was “inactive”.
With `CC(C)OCCCNC(=O)CN1C(=O)CC(C)(C)S(=O)(=O)c2ccccc21` the outcome was “inactive”.
With `COc1ccc2nc(NC(=O)C3CCCN(S(=O)(=O)c4cccc5nonc45)C3)sc2c1` (centres undefined) the outcome was “inactive”.
With `OCCN(Cc1ccccc1)Cc1cccc(F)c1` the outcome was “inactive”.
With `Cc1ccsc1CN1CCN(c2ccccn2)CC1` the outcome was “inactive”.
In the case of `CC(=O)NC(CCS(C)(=O)=O)C(=O)Nc1c(C)cccc1C` (centres undefined), the outcome is reported as “inactive”.
In the case of `CN(C)c1ccc(CNCCC2(O)CCOC(C)(C)C2)cc1` (centres undefined), the outcome is reported as “inactive”.
For `O=C(c1cc(-c2ccco2)on1)N1CCCc2ccccc21`, the outcome was “inactive”.
With `Cc1cc(NC(=O)c2cc(C3CC3)on2)no1` the outcome was “inactive”.
For `Cc1noc(C)c1CSc1nnc(C)c(=O)[nH]1`, the outcome was “inactive”.
For `COc1ccc(-c2nc(C#N)c(N3CCOCC3)o2)cc1OC`, the outcome was “inactive”.
With `Cc1ccsc1C1C(C(=O)O)c2ccccc2C(=O)N1C` (centres undefined) the outcome was “inactive”.
With `CCOC(=O)c1c(C)n(C)c2ccc(O)c(CN3CCC(C)CC3)c12` the outcome was “inactive”.
With `COc1ccc(Cl)cc1NC(=O)C1CCCN(S(=O)(=O)c2cccc3nonc23)C1` (centres undefined) the outcome was “inactive”.
In the case of `CCCc1[nH]nc2c1C(c1ccc(OC)c(Cn3nnc4ccccc43)c1)C(C#N)=C(N)O2` (centres undefined), the outcome is reported as “inactive”.
For `CN(CCC(=O)Nc1ccc2c(c1)OCO2)Cc1ccccc1`, the outcome was “inactive”.
For `COc1ccccc1NS(=O)(=O)c1cccc2cccnc12`, the outcome was “inactive”.
With `COc1ncnc(OC)c1NC(=O)c1ccc(F)cc1` the outcome was “inactive”.
In the case of `Cc1ccc(C(=O)COC(=O)CNC(=O)c2ccco2)cc1`, the outcome is reported as “inactive”.
In the case of `CCOC(=O)C1CCN(C(=O)CN(c2ccc(OC)c(OC)c2)S(=O)(=O)c2ccccc2)CC1`, the outcome is reported as “inactive”.
For `COC(=O)C1=C(C)OC(N)=C(C#N)C1c1cc(OC)c(OCC(N)=O)cc1Cl` (centres undefined), the outcome was “inactive”.
In the case of `CCn1c(SCC(=O)c2ccccc2)nc2c(c1=O)SC(C)C2` (centres undefined), the outcome is reported as “inactive”.
In the case of `O=C(NCc1n[nH]c(=S)n1-c1ccccc1)c1ccco1`, the outcome is reported as “inactive”.
For `COc1c(Br)cc2c(C)c(C(=O)O)oc2c1Br`, the outcome was “inactive”.
For `Oc1ccc(-c2n[nH]c(=S)n2Cc2ccccc2)cc1`, the outcome was “inactive”.
With `COc1ccccc1N1CCN(Cc2ccc(OC)c3ccccc23)CC1` the outcome was “inactive”.
For `O=C1CN(C(=O)COC(=O)C2=COCCO2)c2ccccc2N1`, the outcome was “inactive”.
In the case of `Cc1c(S(=O)(=O)Nc2cccc(Cl)c2)c(=O)n(C)c(=O)n1C`, the outcome is reported as “inactive”.
With `COc1cc(C2c3c(n[nH]c3C)C(=O)N2c2ccc(C)cc2)ccc1O` (centres undefined) the outcome was “inactive”.
With `Cn1cnnc1SCC(=O)n1c2ccccc2c2ccccc21` the outcome was “inactive”.
For `CCS(=O)(=O)NCCc1csc(C)n1`, the outcome was “inactive”.
With `Cc1nn(-c2ccccc2)c2c1C(O)n1c(nc3ccccc31)S2` (centres undefined) the outcome was “inactive”.
In the case of `Cc1cccc(C(=O)Nc2ccccc2C(=O)OCc2c(C)noc2C)c1`, the outcome is reported as “inactive”.
For `CCOc1cc(C(=O)NCCN2CCOCC2)cc(OCC)c1OCC`, the outcome was “inactive”.
In the case of `COCCCn1c(SCC(=O)NCc2ccco2)nc2sc3c(c2c1=O)CCC3`, the outcome is reported as “inactive”.
In the case of `Cc1noc(C)c1C(=O)OCC(=O)/C=C1\N(C)c2ccccc2C1(C)C`, the outcome is reported as “inactive”.
With `CCOC(=O)c1cc2sc(C)cc2n1CC(=O)N1CCN(C(=O)c2ccco2)CC1` the outcome was “inactive”.
For `O=c1oc2ccccc2c(O)c1CN1CCCCC1`, the outcome was “inactive”.
In the case of `COc1ccc(NC(=O)c2cc(-c3ccccc3OC)on2)cc1`, the outcome is reported as “inactive”.

Target: not listed separately
Assay: as above
Settings: purified MK, PK/LDH coupled NADH absorbance 340 nm; measured here: coupling enzymes counter-screen (hexokinase)
With `CN(Cc1c(O)ccc2c1oc(=O)c1ccccc12)C1CCCCC1` the IC50 was 8.83 µM.
`O=c1c2ccccc2nc2n1CCC2` gave an IC50 greater than 1360 µM.
With `CCn1nc(-c2cccs2)nc2c(=O)n(C)c(=O)nc1-2` the IC50 was 9.46 µM.
